The target of one experiment is T1, PD-1/PD-L1 interaction (Homo sapiens, UniProt Q9NZQ7).
T1 construct: expressed in transfected cells; host or cells: CHO cells (aAPC-PD-L1) co-cultured with Jurkat cells overexpressing PD-1 and an NFAT-luciferase reporter
Briefly: PD-1/PD-L1 NFAT reporter co-culture assay. The class given is cell-based. The note with it: Jurkat PD-1 NFAT-luciferase cells co-cultured with aAPC-PD-L1 CHO cells, 6 hrs at 37° C.; read-out: EC50 NFAT Luciferase. The method, boiled down: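 Jurkat cells overexpressing PD-1 with NFAT-luciferase mixed with compounds and plated onto CHO aAPCs expressing anti-CD3 and PD-L1, RPMI with 2% FBS. Co-culture 6 h at 37 °C; luminescence read with ONE-Glo. EC50 from four-parameter fit.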

The target of the next experiment is PD-1/PD-L1 (Homo sapiens, UniProt Q9NZQ7). Kind of experiment: PD-1/PD-L1 biochemical protein-protein interaction assay (ALPHA). The class given is binding. The note with it: 0.3 nM His tagged PD-L1, 2.5 nM biotinylated Fc-PD-1, 60 minutes at 25° C., read-out: IC50 PD-L1-PD-1 Alpha IC50-mono PD-L1-fcP-D1. The procedure: Biological Activity PD-1/PD-L1 & CTLA/CD80 Biochemical Protein-Protein Interaction Assay
Sequence of PD-1/PD-L1 (Q9NZQ7 19-238 limits assumed): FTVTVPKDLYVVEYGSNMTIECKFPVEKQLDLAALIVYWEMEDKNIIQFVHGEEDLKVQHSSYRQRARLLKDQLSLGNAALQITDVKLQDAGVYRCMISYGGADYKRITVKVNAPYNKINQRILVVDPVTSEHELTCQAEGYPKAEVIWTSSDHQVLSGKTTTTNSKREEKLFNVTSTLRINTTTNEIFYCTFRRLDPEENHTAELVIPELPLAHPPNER
Compounds were tested in biochemical protein-protein interaction assays to determine if they can specifically block the interaction between the extracellular domains of PD-1/PD-L1 or CTLA/CD80. Binding of the protein pairs is measured using a bead based Amplified Luminescent Proximity Homogeneous Assay (ALPHA) platform. Binding of each protein pair results in proximity of the donor and acceptor beads which leads to an increase in ALPHA signal. Disruption of the protein-protein interaction with a test compound results in a decrease in ALPHA signal. Assays are performed in 25 mM Hepes (pH 7.4), 150 mM NaCl, 3.4 mM EDTA, 0.005% Tween 20, and 0.01% BSA. Final protein concentration in the assays were 0.3 nM (His tagged PD-L1), 2.5 nM (biotinylated Fc-PD-1), 1 nM (His tagged CTLA4) and 1 nM (biotinylated CD80). After an assay reaction time of 60 minutes at 25° C., binding was measured with addition of 20 μg/mL ALPHA assay acceptor beads (anti-His coated) and […] ALPHA assay donor beads (streptavidin coated). IC50 values were calculated from the fit of the dose-response curves to a four-parameter equation. Representative data are shown below in Table 1.

Each structure is given as a SMILES string. Where only a bound is given, the exact number is not on record here.

T1 sequence (Q9NZQ7 19-290): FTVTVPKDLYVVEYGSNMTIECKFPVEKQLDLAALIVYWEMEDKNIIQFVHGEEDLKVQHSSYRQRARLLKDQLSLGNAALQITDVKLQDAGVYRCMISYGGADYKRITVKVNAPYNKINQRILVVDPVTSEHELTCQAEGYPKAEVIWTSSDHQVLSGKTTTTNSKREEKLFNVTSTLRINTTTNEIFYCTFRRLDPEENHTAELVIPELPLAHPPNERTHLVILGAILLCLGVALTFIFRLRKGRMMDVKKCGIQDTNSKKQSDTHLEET

In general, EC50 refers to the concentration needed to bring the measured effect to its halfway point. One may read the IC50 as the concentration needed to halve the response being measured. As for `COc1nc(O[C@H]2CCc3c(-c4cccc5c4CC[C@@H]5Oc4nc(OC)c(CNC[C@H](O)CC(=O)O)cc4Br)cccc32)c(Br)cc1CNC[C@H](O)CC(=O)O` [Example 3, (3R,3′R)-4,4′-((((((1S,1′S)-2,2′,3,3′-tetrahydro-1H,1′H-[4,4′-biindene]-1,1′-diyl)bis(oxy))bis(5-bromo-2-methoxypyridine-6,3-diyl))bis(methylene))bis(azanediyl))bis(3-hydroxybutanoic acid)], on PD-1/PD-L1 interaction, the EC50 came out at 48 nM. For the same molecule, the IC50 at PD-1/PD-L1 is 0.2 nM. In the case of `CCNCc1cc(Cl)c(OCc2cccc(-c3cccc(COc4cc(OCc5cncc(C#N)c5)c(CNCC)cc4Cl)c3C)c2C)cc1OCc1cncc(C#N)c1` [Example 12, 5,5′-((((((2,2′-dimethyl-[1,1′-biphenyl]-3,3′-diyl)bis(methylene))bis(oxy))bis(4-chloro-6-((ethylamino)methyl)-3,1-phenylene))bis(oxy))bis(methylene))dinicotinonitrile], on PD-1/PD-L1 interaction, the EC50 came out at 653 nM. Besides, the IC50 on PD-1/PD-L1 turned out to be 11.1 nM. Turning to `COc1nc(OCc2cccc(-c3cccc(COc4ccc(CN[C@H](CO)C(=O)O)c(OC)n4)c3C)c2C)ccc1CN[C@H](CO)C(=O)O` [Example 14], the EC50 on PD-1/PD-L1 interaction came out at 13100 nM. For the same molecule, the IC50 at PD-1/PD-L1 was 2.1 nM. Consider `Cc1c(COc2cc(OCc3cncc(C#N)c3)c(CN3CCCCC3)cc2Cl)cccc1-c1cccc(COc2cc(OCc3cncc(C#N)c3)c(CN3CCCCC3)cc2Cl)c1C` [Example 15, 5,5′-((((((2,2′-dimethyl-[1,1′-biphenyl]-3,3′-diyl)bis(methylene))bis(oxy))bis(4-chloro-6-(piperidin-1-ylmethyl)-3,1-phenylene))bis(oxy))bis(methylene))dinicotinonitrile], for which the EC50 at PD-1/PD-L1 interaction was 5710 nM. For the same molecule, the IC50 on PD-1/PD-L1 was 1250 nM.

Turning to `Cc1c(COc2ccc(CNC[C@@H](O)CC(=O)O)cc2)cccc1-c1cccc(COc2cc(OCc3cncc(C#N)c3)c(CNC[C@@H](O)CC(=O)O)cc2Cl)c1C` [Example 17, (S)-4-((4-((3′-((4-((((S)-3-carboxy-2-hydroxypropyl)amino)methyl)-2-chloro-5-((5-cyanopyridin-3-yl)methoxy)phenoxy)methyl)-2,2′-dimethyl-[1,1′-biphenyl]-3-yl)methoxy)benzyl)amino)-3-hydroxybutanoic acid], the EC50 on PD-1/PD-L1 interaction came out at 1610 nM. Moreover, the IC50 on PD-1/PD-L1 is 0.3 nM. For `COc1nc(OCc2cccc(-c3cccc(COc4ccc(CNCCNC(C)=O)c(OC)n4)c3C)c2C)ccc1CNCCNC(C)=O` [Example 18, N,N′-(((((((2,2′-dimethyl-[1,1′-biphenyl]-3,3′-diyl)bis(methylene))bis(oxy))bis(2-methoxypyridine-6,3-diyl))bis(methylene))bis(azanediyl))bis(ethane-2,1-diyl))diacetamide], the EC50 at PD-1/PD-L1 interaction is ≥ 50000 nM. Moreover, the IC50 on PD-1/PD-L1 was 16.2 nM. In the case of `Cc1c(COc2cc(OCc3cncc(C#N)c3)c(CN3CC[C@H]3CO)cc2Br)cccc1-c1cccc(COc2cc(OCc3cncc(C#N)c3)c(CN3CC[C@H]3CO)cc2Br)c1C` [Example 260, 5,5′-((((((2,2′-dimethyl-[1,1′-biphenyl]-3,3′-diyl)bis(methylene))bis(oxy))bis(4-bromo-6-(((S)-2-(hydroxymethyl)azetidin-1-yl)methyl)-3,1-phenylene))bis(oxy))bis(methylene))dinicotinonitrile], the EC50 on PD-1/PD-L1 interaction amounted to 463 nM.

Consider `COc1nc(OCc2cccc(-c3cccc(COc4nc(OC)c(CNCCN5CCCS5(=O)=O)cc4Br)c3C)c2C)c(Br)cc1CNCCN1CCCS1(=O)=O` [Example 264, 2,2′-(((((((2,2′-dimethyl-[1,1′-biphenyl]-3,3′-diyl)bis(methylene))bis(oxy))bis(5-bromo-2-methoxypyridine-6,3-diyl))bis(methylene))bis(azanediyl))bis(ethane-2,1-diyl))bis(isothiazolidine 1,1-dioxide)], for which, on PD-1/PD-L1 interaction, the EC50 turned out to be 1290 nM. As for `COc1nc(OCc2cccc(-c3cccc(COc4nc(OC)c(CNCCNS(C)(=O)=O)cc4Br)c3C)c2C)c(Br)cc1CNCCNS(C)(=O)=O` [Example 266, N,N′-(((((((2,2′-dimethyl-[1,1′-biphenyl]-3,3′-diyl)bis(methylene))bis(oxy))bis(5-bromo-2-methoxypyridine-6,3-diyl))bis(methylene))bis(azanediyl))bis(ethane-2,1-diyl))dimethanesulfonamide], on PD-1/PD-L1 interaction, the EC50 turned out to be 1380 nM.

As for `COc1nc(OCc2cccc(-c3cccc(COc4nc(OC)c(CN(C)CCN5CCOCC5)cc4Br)c3C)c2C)c(Br)cc1CN(C)CCN1CCOCC1` [Example 268, N,N′-(((((2,2′-dimethyl-[1,1′-biphenyl]-3,3′-diyl)bis(methylene))bis(oxy))bis(5-bromo-2-methoxypyridine-6,3-diyl))bis(methylene))bis(N-methyl-2-morpholinoethan-1-amine)], the EC50 on PD-1/PD-L1 interaction came to 993 nM. The same measure, in the same setting: next, `COc1nc(OCc2cccc(-c3cccc(COc4nc(OC)c(CN5CCNC(=O)C5)cc4Br)c3C)c2C)c(Br)cc1CN1CCNC(=O)C1` [Example 270, 4,4′-(((((2,2′-dimethyl-[1,1′-biphenyl]-3,3′-diyl)bis(methylene))bis(oxy))bis(5-bromo-2-methoxypyridine-6,3-diyl))bis(methylene))bis(piperazin-2-one)]: ≥ 50000 nM; `CNC(=O)[C@](C)(CO)NCc1cc(Br)c(OCc2cccc(-c3cccc(COc4nc(OC)c(CN[C@@](C)(CO)C(=O)NC)cc4Br)c3C)c2C)nc1OC` [Example 274, (2S,2′S)-2,2′-((((((2,2′-dimethyl-[1,1′-biphenyl]-3,3′-diyl)bis(methylene))bis(oxy))bis(5-bromo-2-methoxypyridine-6,3-diyl))bis(methylene))bis(azanediyl))bis(3-hydroxy-N,2-dimethylpropanamide)]: 1200 nM; `Cc1c(OC(F)(F)c2ccc(CNCC(=O)O)cc2)cccc1-c1cccc(OC(F)(F)c2ccc(CNCC(=O)O)cc2)c1C` [Example 278, 2,2′-((((((2,2′-dimethyl-[1,1′-biphenyl]-3,3′-diyl)bis(oxy))bis(difluoromethylene))bis(4,1-phenylene))bis(methylene))bis(azanediyl))diacetic acid]: ≥ 50000 nM. Take `Cc1c(COc2cc(OCc3cccc(C#N)c3)c(CNCCO)cc2Cl)cccc1-c1cccc(COc2cc(OCc3cccc(C#N)c3)c(CNCCO)cc2Cl)c1C` [Example 284, 3,3′-((((((2,2′-dimethyl-[1,1′-biphenyl]-3,3′-diyl)bis(methylene))bis(oxy))bis(4-chloro-6-(((2-hydroxyethyl)amino)methyl)-3,1-phenylene))bis(oxy))bis(methylene))dibenzonitrile]: the EC50 on PD-1/PD-L1 interaction was determined as 1460 nM. Same read-out and setting: next, `COc1nc(OCc2cccc(-c3cccc(COc4ccc(CNC[C@@H](O)CC(=O)O)c(OC)n4)c3F)c2C)ccc1CNC[C@@H](O)CC(=O)O` [Example 285, (3S,3′S)-4,4′-((((((2-fluoro-2′-methyl-[1,1′-biphenyl]-3,3′-diyl)bis(methylene))bis(oxy))bis(2-methoxypyridine-6,3-diyl))bis(methylene))bis(azanediyl))bis(3-hydroxybutanoic acid)]: 9690 nM. On to `Cc1c(COc2cc(OCc3cncc(C#N)c3)c(CNC[C@@H](O)CC(=O)O)cc2Cl)cccc1-c1cccc(-c2nc3ccc(CNC[C@@H](O)CC(=O)O)cc3s2)c1C` [Example 286, (S)-4-(((2-(3′-((4-((((S)-3-carboxy-2-hydroxypropyl)amino)methyl)-2-chloro-5-((5-cyanopyridin-3-yl)methoxy)phenoxy)methyl)-2,2′-dimethyl-[1,1′-biphenyl]-3-yl)benzo[d]thiazol-6-yl)methyl)amino)-3-hydroxybutanoic acid], for which the half-maximal effective concentration (EC50) at PD-1/PD-L1 interaction was 232 nM. Consider `Cc1c(COc2cc(OCc3cncc(C#N)c3)c(CNCCO)cc2Cl)cccc1-c1cccc(-c2ccc(CNCCCC(=O)O)cc2)c1C` [Example 334, 4-(((3″-((2-chloro-5-((5-cyanopyridin-3-yl)methoxy)-4-(((2-hydroxyethyl)amino)methyl)phenoxy)methyl)-2′,2″-dimethyl-[1,1′:3′,1″-terphenyl]-4-yl)methyl)amino)butanoic acid], for which, at PD-1/PD-L1, the IC50 came to 0.143 nM. Consider `Cc1c(COc2nc(OCc3cc(C#N)cc(C#N)c3)c(CNC[C@@H](O)CC(=O)O)cc2Cl)cccc1-c1cccc(-c2ccc(OCCNCCO)cc2)c1C` [Example 472], for which the EC50 at PD-1/PD-L1 interaction turned out to be 51 nM. Take `N#Cc1cncc(COc2nc(OCc3cccc(-c4cccc(COc5nc(OCc6cncc(C#N)c6)c(CNC[C@@H](O)CC(=O)O)cc5Br)c4Cl)c3Cl)c(Br)cc2CNC[C@@H](O)CC(=O)O)c1` [Example 563]: on PD-1/PD-L1, the IC50 came out at 0.317 nM.

The record behind these values is patent US12590062B2, “PD-1/PD-L1 inhibitors” (Gilead Sciences, Inc., priority 2017, dated 2026).
